pIC50: −log10 of the molar value.

The subject of data set [1] is Detroit 562. Put plainly: Antiproliferative activity against human Detroit 562 cells. The class given is functional, cell-based.
The subject of data set [2] is MCF7. Put plainly: Antiproliferative activity against human MCF7 cells assessed as inhibition of cell growth measured after 72 hrs by MTT assay. The class given is functional, cell-based. As to conditions: MCF7, 72 h. (Tetrazolium assays rely on reduction of a dye to a coloured formazan, in cell work by metabolically active cells.)
Data set [3] relates to MCF7. Kind of data set: Anticancer activity against human MCF7 cells. In kind it is functional, cell-based.
The test system of data set [4] is A549. Put plainly: Antiproliferative activity against human A549 cells assessed as reduction in cell viability incubated for 48 hrs by MTT assay. The class given is toxicity, cell-based. The note with it: A549, 48 h.
Data set [5] in a line: Antiproliferative activity against human WS1 cells assessed as reduction in cell viability incubated for 48 hrs by MTT assay. In kind it is toxicity, cell-based.
Data set [6] relates to PC-3. Kind of data set: Cytotoxicity against human PC-3 cells assessed as reduction in cell growth incubated for 48 hrs by MTT assay. The class given is functional, cell-based. As to conditions: PC-3, 48 h.
Data set [7] relates to A549. Kind of data set: Antiproliferative activity against human A549 cells assessed as reduction in cell growth incubated for 72 hrs by MTT assay. In kind it is functional, cell-based. The note with it: A549, 72 h.
For data set [8], the system named is Fibroblast. Put plainly: Antiproliferative activity against human Fibroblast cells. The class given is functional, cell-based.
In data set [9] the test system is SCC-25. Put plainly: Antiproliferative activity against human SCC-25 cells. In kind it is functional, cell-based.
Data set [10] deals with HepG2. Put plainly: Antiproliferative activity against human HepG2 cells assessed as inhibition of cell growth measured after 72 hrs by MTT assay. The class given is functional, cell-based. The note with it: HepG2, 72 h.
The subject of data set [11] is U-937. Put plainly: Antiproliferative activity against human U-937 cells. The class given is functional, cell-based.
Data set [12] deals with HL-60. Put plainly: Antiproliferative activity against human HL-60 cells. In kind it is functional, cell-based.
Data set [13] concerns BT-474. Put plainly: Antiproliferative activity against human BT-474 cells assessed as inhibition of cell growth measured after 72 hrs by MTT assay. The class given is functional, cell-based. As to conditions: BT-474, 72 h.
Data set [14] has as its system K562. Put plainly: Antiproliferative activity against human K562 cells assessed as reduction in cell viability incubated for 72 hrs by MTT assay. In kind it is functional, cell-based. As to conditions: K562, 72 h.
Data set [15] relates to PC-3. Put plainly: Antiproliferative activity against human PC-3 cells assessed as reduction in cell viability incubated for 72 hrs by MTT assay. In kind it is functional, cell-based. As to conditions: PC-3, 72 h.
Data set [16] concerns HCT-116. Put plainly: Anticancer activity against human HCT-116 cells assessed as reduction in cell viability incubated for 48 hrs by MTT assay. In kind it is functional, cell-based. As to conditions: HCT-116, 48 h.
Data set [17] relates to MCF7. Kind of data set: Anticancer activity against human MCF7 cells assessed as reduction in cell viability incubated for 48 hrs by MTT assay. The class given is functional, cell-based. As to conditions: MCF7, 48 h.
Data set [18] concerns MCF7. Put plainly: Antiproliferative activity against human MCF7 cells assessed as reduction in cell viability incubated for 24 hrs by SRB assay. The class given is functional, cell-based. As to conditions: MCF7, 24 h. On the technique in general: Sulforhodamine B stains cellular protein and so reports cell mass.
Data set [19] relates to SGC-7901. Put plainly: Antiproliferative activity against human SGC-7901 cells. In kind it is functional, cell-based.
Data set [20] concerns CCRF-CEM. Put plainly: Antiproliferative activity against human CCRF-CEM cells. The class given is functional, cell-based.
Data set [21] deals with NCI-H1975. Kind of data set: Antiproliferative activity against human NCI-H1975 cells assessed as reduction in cell growth incubated for 72 hrs by cell-titer glo assay. The class given is functional, cell-based. The note with it: NCI-H1975, 72 h.
The test system of data set [22] is NCI-H1650. Put plainly: Antiproliferative activity against human NCI-H1650 cells assessed as reduction in cell growth incubated for 72 hrs by cell-titer glo assay. In kind it is functional, cell-based. As to conditions: NCI-H1650, 72 h.
Data set [23] relates to K562. Kind of data set: Cytotoxicity against human K562 cells assessed as reduction in cell growth incubated for 72 hrs by MTT assay. The class given is functional, cell-based. The note with it: K562, 72 h.
Data set [24] relates to PC-3. Put plainly: Cytotoxicity against human PC-3 cells assessed as reduction in cell growth incubated for 72 hrs by MTT assay. As to conditions: PC-3, 72 h. The class given is functional, cell-based.
The nature of data set [25]: Cytotoxicity against hTERT Lung Fibroblast cells assessed as reduction in cell growth incubated for 72 hrs by MTT assay. The class given is toxicity, cell-based. The note with it: human.
In data set [26] the test system is MCF7. Put plainly: Cytotoxicity against human MCF7 cells assessed as reduction in cell growth incubated for 72 hrs by MTT assay. In kind it is functional, cell-based. The note with it: MCF7, 72 h.

For the compound `COCCOc1cc2ncnc(Nc3cccc(-c4cn(-c5ccccc5/C=C/C(=O)c5cc(OC)c(OC)c(OC)c5)nn4)c3)c2cc1OCCOC`, in [1], the pIC50 (commonly −log10 of the IC50, conventionally taken in molar units) was 6.17. As for `COc1cc([N+](=O)[O-])ccc1-n1cc(CN2C(=O)S/C(=C\c3cn(-c4ccccc4)nc3-c3ccccc3)C2=O)nn1`, the pIC50 in data set [2] was 6.37. In data set [3], `Cc1cc(=O)oc2cc(-n3cc(-c4cccc(-c5cn(-c6ccc7c(C)cc(=O)oc7c6)nn5)c4)nn3)ccc12` showed a pIC50 of 6.52. `Cc1ccc(-n2ncc(CN3C(=O)C(F)(F)c4cc(Br)ccc43)n2)cc1Nc1nccc(-c2cccnc2)n1`: the pIC50 in data set [4] was 5.14. In addition, the IC50 (as a rule, the concentration needed to halve the response being measured) at 48 h in data set [5] came out at 18.6 µM. As for `NC(=S)N/N=C1/C(=O)N(Cc2cn(CC(=O)c3ccc(Br)cc3)nn2)c2ccccc21`, the negative logarithm of the IC50 (pIC50) in data set [6] is 4.81.

On to `COc1ccc2c(-n3cc(-c4cc(OC)c(OC)c(OC)c4)nn3)c(C(=O)Nc3ccccc3)oc2c1`, for which the pIC50 in data set [7] is 6.24. For the compound `CC(C)CCC1=C(OCc2cn(-c3cccc(Cl)c3)nn2)C(=O)c2ccccc2C1=O`, the pIC50 in data set [8] was 3.68; in [9], 5.01. As to `Cc1ccc(/N=N/c2sc(N/N=C/c3cn(-c4ccccc4)nc3-c3nnn(-c4ccc(Br)cc4)c3C)nc2C)cc1`, the pIC50 in [10] was 5.64. As for `Nc1ccc(-c2nnc(Sc3nc4ccccc4n4c(Nc5ccccc5)nnc34)o2)cc1`, the results for the pIC50 in data set [11] and in [12] were 5.58 and 5.57, respectively. On to `COc1ccc(Cn2cc(Cn3c(=O)c(-c4nc5ccccc5[nH]4)cc4ccccc43)nn2)c(OC)c1OC`, for which the pIC50 in [13] is 6.23. `O=C1C(=O)c2cc(Cn3cc(-c4ccccc4)nn3)oc2-c2ccccc21`: the pIC50 is 5.89 in data set [14] and 5.85 in data set [15]. For `CN(C)c1ccc(/C=N/c2nnc(S[C@@H]3O[C@H](CO)[C@@H](O)[C@H](O)[C@H]3O)s2)cc1`, the figures for the pIC50 in [16] and in data set [17] were 4.92 and 4.76, respectively. `CC(=O)OC[C@H]1OC(n2cc(COc3cccc4cccnc34)nn2)[C@@H](OC(C)=O)[C@H](OC(C)=O)[C@H]1OC(C)=O` (some centres not stated): the pIC50 in [18] was 5.39.

`CC1(C)CC[C@]23CC[C@]4(C)[C@H](CC[C@@H]5[C@@]6(C)Cc7nnn(CCCCC[P+](c8ccccc8)(c8ccccc8)c8ccccc8)c7C(C)(C)[C@@H]6CC[C@]54C)[C@H]2[C@H]1OC3` had a pIC50 in [19] of 5.98. In the case of `CN(C)c1ccc(/C=N/c2nnc(S[C@@H]3O[C@H](CO)[C@H](O)[C@H](O)[C@H]3O)s2)cc1`, the pIC50 in data set [16] was 4.84; in data set [17], 4.66. Take `CC1(C)CC[C@]23CC[C@]4(C)[C@H](CC[C@@H]5[C@@]6(C)CC[C@H](O)C(C)(C)[C@@H]6CC[C@]54C)[C@H]2[C@H]1OC3` [ALLOBETULIN]: in data set [19], the pIC50 was 4.28. With `COc1ccc(/C=C\c2cc(OC)c(OC)c(OC)c2)cc1O` [COMBRETASTATIN A4], the pIC50 in data set [7] is 7.40.

In [20], `COc1cc(/C=C/C(=O)CC(=O)/C=C/c2ccc(O)c(OC)c2)ccc1O` [CURCUMIN] showed a pIC50 of 4.98. Regarding `C#Cc1cccc(Nc2ncnc3cc(OCCOC)c(OCCOC)cc23)c1` [ERLOTINIB], the pIC50 was 4.43 in [21] and 4.40 in data set [22]. For `Cc1ccc(NC(=O)c2ccc(CN3CCN(C)CC3)cc2)cc1Nc1nccc(-c2cccnc2)n1` [IMATINIB], the negative-log IC50 (pIC50) in data set [4] is 4.19. Further, the IC50 at 48 h in data set [5] was found to be 9.6 µM. Regarding `Cc1coc2c1C(=O)C(=O)c1c-2ccc2c1CCCC2(C)C` [TANSHINONE IIA], the negative-log IC50 (pIC50) was 5.34 in data set [23] and 5.49 in [24]. Regarding `C[C@H]1[C@H](C)CC[C@]2(C(=O)O)CC[C@]3(C)C(=CC[C@@H]4[C@@]5(C)CC[C@H](O)C(C)(C)[C@@H]5CC[C@]43C)[C@H]12` [URSOLIC ACID], in data set [25], the IC50 at 72 h was found to be 90.9 µM. For the same compound, the pIC50 in data set [26] was 4.60.
